We go through three compounds from PubChem BioAssay AID1259407 (Chemical Carcinogenesis Research Information System (CCRIS), 2018).

In the data set the test system is CCRIS mutagenicity, Ames/micronucleus/aberration tests. The experiment in a line: CCRIS mutagenicity studies.
Setting [1] is: Test System: AMES SALMONELLA TYPHIMURIUM, Strain/Indicator: TA98, Metabolic Activation: NONE, Method: STANDARD PLATE.
Where [2] appears, read: Test System: AMES SALMONELLA TYPHIMURIUM, Strain/Indicator: TA100, Metabolic Activation: NONE, Method: STANDARD PLATE.

The source made the active and inactive calls. The rule behind the calls is not given here.

Turning to `CCOP(=O)(OCC)Oc1ccc([N+](=O)[O-])cc1`, the mutagenic call runs as follows: (End Point: IN VITRO MICRONUCLEUS, Test System: HUMAN NEWBORN UMBILICAL CORD BLOOD, Metabolic Activation: NONE) “active; positive only at highest dose”; (End Point: IN VITRO MICRONUCLEUS, Test System: HUMAN PERIPHERAL LYMPHOCYTES (MALE/FEMALE ADULT), Metabolic Activation: NONE) “active; positive only at highest dose”; (End Point: In vitro micronucleus, Test System: Human peripheral blood lymphocytes, Metabolic Activation: None) “active; positive. pon1 qq, but not pon1 rr individuals exhibited significant increase in”; under setting [1], “active; positive”; (Test System: AMES SALMONELLA TYPHIMURIUM, Strain/Indicator: TA98, Metabolic Activation: RAT, LIVER, S-9, Method: STANDARD PLATE) “active; positive”; under setting [2], “inactive; negative”. Besides, the mutagenic call (Test System: AMES SALMONELLA TYPHIMURIUM, Strain/Indicator: TA100, Metabolic Activation: RAT, LIVER, S-9, Method: STANDARD PLATE) was “active; positive”.

Regarding `C[Si](C)(C)Cl`, the mutagenic call (Test System: AMES SALMONELLA TYPHIMURIUM, Strain/Indicator: TA98, Metabolic Activation: HAMSTER, LIVER, S-9, AROCLOR 1254, Method: PREINCUBATION) is “inactive; negative”; the mutagenic call (Test System: AMES SALMONELLA TYPHIMURIUM, Strain/Indicator: TA98, Metabolic Activation: NONE, Method: PREINCUBATION) was “inactive; negative”; the mutagenic call under setting [1] is “inactive; negative”; the mutagenic call (Test System: AMES SALMONELLA TYPHIMURIUM, Strain/Indicator: TA98, Metabolic Activation: RAT LIVER S-9, AROCLOR 1254, Method: STANDARD PLATE) was “inactive; negative”; the mutagenic call (Test System: AMES SALMONELLA TYPHIMURIUM, Strain/Indicator: TA98, Metabolic Activation: RAT, LIVER, S-9, AROCLOR 1254, Method: PREINCUBATION) is “inactive; negative”; the mutagenic call (Test System: AMES SALMONELLA TYPHIMURIUM, Strain/Indicator: TA100, Metabolic Activation: HAMSTER, LIVER, S-9, AROCLOR 1254, Method: PREINCUBATION) was “inactive; negative”. In addition, the mutagenic call is “inactive; negative” (Test System: AMES SALMONELLA TYPHIMURIUM, Strain/Indicator: TA100, Metabolic Activation: NONE, Method: PREINCUBATION); “inactive; negative” under setting [2]; “inactive; negative” (Test System: AMES SALMONELLA TYPHIMURIUM, Strain/Indicator: TA100, Metabolic Activation: RAT LIVER S-9, AROCLOR 1254, Method: STANDARD PLATE); “inactive; negative” (Test System: AMES SALMONELLA TYPHIMURIUM, Strain/Indicator: TA100, Metabolic Activation: RAT, LIVER, S-9, AROCLOR 1254, Method: PREINCUBATION); “inactive; negative” (Test System: AMES SALMONELLA TYPHIMURIUM, Strain/Indicator: TA1535, Metabolic Activation: HAMSTER, LIVER, S-9, AROCLOR 1254, Method: PREINCUBATION); “inactive; negative” (Test System: AMES SALMONELLA TYPHIMURIUM, Strain/Indicator: TA1535, Metabolic Activation: NONE, Method: PREINCUBATION). The mutagenic call is, setting by setting: (Test System: AMES SALMONELLA TYPHIMURIUM, Strain/Indicator: TA1535, Metabolic Activation: NONE, Method: STANDARD PLATE) “inactive; negative”; (Test System: AMES SALMONELLA TYPHIMURIUM, Strain/Indicator: TA1535, Metabolic Activation: RAT LIVER S-9, AROCLOR 1254, Method: STANDARD PLATE) “inactive; negative”; (Test System: AMES SALMONELLA TYPHIMURIUM, Strain/Indicator: TA1535, Metabolic Activation: RAT, LIVER, S-9, AROCLOR 1254, Method: PREINCUBATION) “inactive; negative”; (Test System: AMES SALMONELLA TYPHIMURIUM, Strain/Indicator: TA1537, Metabolic Activation: HAMSTER, LIVER, S-9, AROCLOR 1254, Method: PREINCUBATION) “inactive; negative”; (Test System: AMES SALMONELLA TYPHIMURIUM, Strain/Indicator: TA1537, Metabolic Activation: NONE, Method: PREINCUBATION) “inactive; negative”; (Test System: AMES SALMONELLA TYPHIMURIUM, Strain/Indicator: TA1537, Metabolic Activation: NONE, Method: STANDARD PLATE) “inactive; negative”. For the same compound, the mutagenic call (Test System: AMES SALMONELLA TYPHIMURIUM, Strain/Indicator: TA1537, Metabolic Activation: RAT LIVER S-9, AROCLOR 1254, Method: STANDARD PLATE) is “inactive; negative”; the mutagenic call (Test System: AMES SALMONELLA TYPHIMURIUM, Strain/Indicator: TA1537, Metabolic Activation: RAT, LIVER, S-9, AROCLOR 1254, Method: PREINCUBATION) was “inactive; negative”; the mutagenic call (Test System: AMES SALMONELLA TYPHIMURIUM, Strain/Indicator: TA1538, Metabolic Activation: HAMSTER, LIVER, S-9, AROCLOR 1254, Method: PREINCUBATION) was “inactive; negative”; the mutagenic call (Test System: AMES SALMONELLA TYPHIMURIUM, Strain/Indicator: TA1538, Metabolic Activation: NONE, Method: PREINCUBATION) is “inactive; negative”; the mutagenic call (Test System: AMES SALMONELLA TYPHIMURIUM, Strain/Indicator: TA1538, Metabolic Activation: NONE, Method: STANDARD PLATE) is “inactive; negative”; the mutagenic call (Test System: AMES SALMONELLA TYPHIMURIUM, Strain/Indicator: TA1538, Metabolic Activation: RAT LIVER S-9, AROCLOR 1254, Method: STANDARD PLATE) was “inactive; negative”. Further, the mutagenic call is “inactive; negative” (Test System: AMES SALMONELLA TYPHIMURIUM, Strain/Indicator: TA1538, Metabolic Activation: RAT, LIVER, S-9, AROCLOR 1254, Method: PREINCUBATION); “inactive; negative” (Test System: E. COLI, Strain/Indicator: P3078 POLA, Metabolic Activation: NONE, Method: SPOT TEST); “inactive; negative” (Test System: E. COLI, Strain/Indicator: P3078 POLA, Metabolic Activation: RAT LIVER S-9, AROCLOR 1254, Method: SPOT TEST); “inactive; negative” (Test System: E. COLI, Strain/Indicator: W3110, Metabolic Activation: NONE, Method: SPOT TEST); “inactive; negative” (Test System: E. COLI, Strain/Indicator: W3110, Metabolic Activation: RAT LIVER S-9, AROCLOR 1254, Method: SPOT TEST); “inactive; negative. reevaluation of results: negative” (Test System: MOUSE LYMPHOMA, Strain/Indicator: L5178Y (TK+/TK-), Metabolic Activation: RAT, LIVER, S-9, AROCLOR 1254, Method: SUSPENSION/PLATE). The mutagenic call (Test System: MOUSE LYMPHOMA, Strain/Indicator: L5178Y (TK+/TK-), Metabolic Activation: RAT, LIVER, S-9, Method: SUSPENSION/PLATE) is “inactive; negative”.

As to `Nc1nc2c(ncn2COC(CO)CO)c(=O)[nH]1`, under “End Point: IN VITRO CHROMOSOMAL ABERRATIONS, Test System: CHO CELLS (CHO-HSVTK), Metabolic Activation: NONE”, the mutagenic call is “active; positive (structural changes); concentration chosen also induced apoptosis”.
